Measured values taken from PMC10333884, “Large‐scale phosphomimetic screening identifies phospho‐modulated motif‐based protein interactions” (Molecular Systems Biology, 2023).
Non-standard residues stand in square brackets, D forms with d. Residues, ends and D or L forms follow the SMILES beside them. pT = C[C@@H](OP(=O)(O)O)[C@H](N)C(=O)O; pS = N[C@@H](COP(=O)(O)O)C(=O)O

Tests used:
Format in all cases: binding
GGA1 VHS [1] = biological target: T1, GGA1 VHS (Homo sapiens, UniProt Q9UJY5); test: ITC, GGA1 VHS; set-up: Ka: unit not given beside the values; details: for Kd: ITC (iTC200), 50 mM sodium phosphate pH 7.4, 1 mM DTT, average of the runs, technical duplicates
T1 construct: GGA1_VHS__Q9UJY5_1_157; GST (cleaved yes); made in house; host or cells: Escherichia coli BL21-Gold(DE3)
T1 sequence (Q9UJY5 1-157): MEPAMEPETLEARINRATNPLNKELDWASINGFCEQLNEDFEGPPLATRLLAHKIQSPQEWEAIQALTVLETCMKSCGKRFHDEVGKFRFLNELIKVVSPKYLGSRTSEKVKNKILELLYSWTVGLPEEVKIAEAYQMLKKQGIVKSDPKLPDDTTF

GGA1 VHS [2] = biological target: T1, GGA1 VHS; test: FP displacement assay, GGA1 VHS
Description: (§1) FP experiments were performed as described previously (Kliche et al, [2021]). Shortly, in order to monitor the binding event, FITC‐labelled peptides were used (excitation 495 nm, emission: 535 nm) and the FP signal was recorded in mP on a SpectraMax iD5 Multi‐Mode Microplate Reader (Molecular Devices) by measuring the emitted light in two angels. The measurements were performed at room temperature and prepared in nonbinding black half area 96‐well microplates (Corning®; 50 μl/well). For measuring direct binding, that is saturation curves, a 1:1 dilution series of protein domain (25 μl/well) was generated in 50 mM sodium phosphate buffer pH 7.4 and the measurement performed with 5 nM FITC‐labelled peptide (25 μl/well). The buffer‐corrected values were subsequently plotted with PRISM and fitted to the quadratic equation (Gianni et al, [2005]).
(§2) The 1:1 dilution series in this experiment was performed with the unlabelled peptide in 50 mM sodium phosphate buffer pH 7.4, so that each well‐contained unlabelled peptide (25 μl) at a certain concentration and pre‐formed complex (25 μl). The KD values of this indirectly monitored binding event were calculated as described previously (Nikolovska‐Coleska et al, [2004]). All measurements were at least in technical triplicates as well as biological duplicates when indicated. An amplitude shift between repeat measurements in the displacement experiments was occasionally observed due to variations in the protein preparations. If that was the case, the “active” protein concentration was back‐calculated according to the quadratic equation from the saturation curves performed in parallel. By comparing the active protein concentrations in the complex between different protein preparations, the amplitude was normalised.

Clathrin NTD = biological target: T2, Clathrin NTD (Homo sapiens, UniProt Q00610); test: FP displacement assay, clathrin NTD
T2 construct: GST (cleaved yes); made in house; host or cells: Escherichia coli BL21-Gold(DE3)
T2 sequence (Q00610 1-364): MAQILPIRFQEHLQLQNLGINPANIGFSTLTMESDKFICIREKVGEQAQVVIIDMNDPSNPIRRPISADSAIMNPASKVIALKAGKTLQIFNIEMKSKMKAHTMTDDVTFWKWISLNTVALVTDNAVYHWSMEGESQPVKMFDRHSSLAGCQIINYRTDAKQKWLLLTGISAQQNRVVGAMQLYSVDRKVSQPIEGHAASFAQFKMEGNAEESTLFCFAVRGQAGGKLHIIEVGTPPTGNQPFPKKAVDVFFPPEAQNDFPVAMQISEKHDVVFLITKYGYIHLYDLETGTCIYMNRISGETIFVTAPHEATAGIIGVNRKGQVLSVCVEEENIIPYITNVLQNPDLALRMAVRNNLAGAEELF
Description: as §1, §2

SNX27 PDZ = biological target: T3, SNX27 PDZ (Homo sapiens, UniProt Q96L92); test: FP displacement assay, SNX27 PDZ (MBP-tagged); details: MBP-tagged domain, probe FITC-SYT16 5 nM, 50 mM sodium phosphate pH 7.4, room temperature, at least three technical replicates, read-out: KD values ± SEM
T3 construct: SNX27_PDZ__Q96L92_40_141; made in house; host or cells: Escherichia coli BL21-Gold(DE3)
Description: For FP, ITC and crystallisation, the tag was removed with the appropriate protease either on beads (0.1 mg/ml thrombin (Cytiva) in PBS, 1 mM dithiothreitol (DTT)) or by dialysis in cleavage buffer (Human Rhinovirus (HRV) 3C protease: 50 mM Tris–HCl pH 7.4, 150 mM NaCl, 1 mM β‐mercaptoethanol), both procedures were overnight. In case of HRV protease cleavage, the tag was separated from the target protein domain by reverse ion metal affinity chromatography using Ni^2+ beads for purification, whereas thrombin was removed using a benzamidine column (Cytiva). Affinity measurements for SNX27 PDZ were performed on the MBP‐tagged construct, as well as PIN1 WW domain on the GST‐tagged construct. For FP and ITC, proteins were dialysed in 50 mM sodium phosphate buffer pH 7.4, 1 mM DTT. For crystallisation of the NTD of clathrin, the protein was further purified by a S200 Sepharose column (Cytiva) using 20 mM Tris–HCl pH 7.4, 150 mM NaCl and 1 mM DTT.
as §1, §2

MAP1LC3B = biological target: T4, MAP1LC3B (Homo sapiens, UniProt Q9GZQ8); test: FP displacement assay, MAP1LC3B; details: read-out: KD values ± SEM
T4 construct: GST (cleaved yes); made in house; host or cells: Escherichia coli BL21-Gold(DE3)
Description: as §1, §2

MAP1LC3A = biological target: T5, MAP1LC3A (Homo sapiens, UniProt Q9H492); test: FP displacement assay, MAP1LC3A
T5 construct: GST (cleaved yes); made in house; host or cells: Escherichia coli BL21-Gold(DE3)

GABARAPL2 = biological target: T6, GABARAPL2 (Homo sapiens, UniProt P60520); test: FP displacement assay, GABARAPL2; details: read-out: KD values ± SEM
T6 construct: GABARAPL2_ATG8__P60520_2_115; GST (cleaved yes); made in house; host or cells: Escherichia coli BL21-Gold(DE3)
T6 sequence (P60520 2-115): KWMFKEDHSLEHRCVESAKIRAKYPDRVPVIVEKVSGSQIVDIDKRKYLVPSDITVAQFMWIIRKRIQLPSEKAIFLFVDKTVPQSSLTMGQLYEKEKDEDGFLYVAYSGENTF
Description: as §1, §2

[3] = ITC single run: date 200220, injection 1
[4] = ITC single run: date 200220, injection 2
[5] = FP displacement, probe FITC-IGF2R 5 nM, 50 mM sodium phosphate pH 7.4, room temperature, at least three technical replicates, read-out: KD values ± SEM

| Structure (SMILES) | Kd (GGA1 VHS [1]) | Ka (GGA1 VHS [1]; [3]) | Ka (GGA1 VHS [1]; [4]) | Kd (GGA1 VHS [2]; [5]) | other results |
| --- | --- | --- | --- | --- | --- |
| CC[C@H](C)[C@H](NC(=O)[C@H](CC(=O)O)NC(=O)[C@H](CC(=O)O)NC(=O)[C@H](CO)NC(=O)[C@@H](NC(=O)[C@@H]1CCCN1C(=O)[C@H](CO)NC(=O)[C@H](CCCCN)NC(=O)[C@H](Cc1ccc(O)cc1)NC(C)=O)[C@@H](C)O)C(=O)N[C@@H](CO)C(=O)N[C@@H](CC(C)C)C(=O)N[C@@H](CC(C)C)C(=O)N[C@@H](Cc1c[nH]cn1)C(=O)N[C@@H](CCC(=O)O)C(=O)N[C@@H](CO)C(=O)N[C@@H](CCC(N)=O)C(=O)N[C@@H](CO)C(N)=O [RNF11_6–21 wt] (Ac-YKSPTSDDISLLHESQS-NH2) | 919 µM | 2030 | 744 | 420 ± 50 µM | – |
| CC[C@H](C)[C@H](NC(=O)[C@H](CC(C)C)NC(=O)[C@H](CCC(N)=O)NC(=O)CNC(=O)[C@H](Cc1ccc(O)cc1)NC(C)=O)C(=O)N[C@@H](CC(=O)O)C(=O)N[C@@H](CC(C)C)C(=O)N[C@@H](CO)C(=O)N[C@@H](CO)C(=O)N1CCC[C@H]1C(=O)N[C@@H](CC(C)C)C(=O)N[C@H](C(=O)N[C@@H](CCC(N)=O)C(=O)N[C@@H](CC(C)C)C(=O)N[C@@H](CO)C(=O)N1CCC[C@H]1C(=O)N[C@@H](CCC(=O)O)C(N)=O)[C@@H](C)CC [GTSE1_692–707] (Ac-YGQLIDLSSPLIQLSPE-NH2) | – | – | – | – | Kd (Clathrin NTD): ~100 µM |
| CC(=O)N[C@@H](CC(N)=O)C(=O)N[C@@H](CC(C)C)C(=O)N[C@@H](CC(C)C)C(=O)N[C@@H](CC(C)C)C(=O)N[C@@H](CCC(=O)O)C(=O)N[C@@H](CCCNC(=N)N)C(=O)N[C@@H](CC(=O)O)C(=O)N[C@H](C(=O)N[C@@H](COP(=O)(O)O)C(=O)N[C@@H](Cc1ccccc1)C(=O)N[C@H](C(=O)N[C@H](C(=O)N[C@@H](C)C(=O)N1CCC[C@H]1C(=O)N[C@@H](CC(=O)O)C(=O)N[C@@H](Cc1ccc(O)cc1)C(N)=O)C(C)C)[C@@H](C)O)[C@@H](C)O [CDC25C30–44 pS] (Ac-NLLLERDT[pS]FTVAPDY-NH2) | – | – | – | – | Kd (SNX27 PDZ): 395 ± 63 µM |
| CC(=O)N[C@@H](CC(=O)O)C(=O)N[C@@H](CC(C)C)C(=O)N[C@@H](CC(C)C)C(=O)N[C@H](C(=O)N[C@@H](CO)C(=O)N1CCC[C@H]1C(=O)N[C@@H](CC(=O)O)C(=O)N[C@H](C(=O)NCC(=O)N[C@@H](CC(C)C)C(=O)N[C@@H](CC(C)C)C(=O)N[C@@H](CCCCN)C(=O)N[C@@H](CC(C)C)C(=O)N[C@@H](C)C(=O)N[C@@H](CO)C(=O)N[C@@H](Cc1ccc(O)cc1)C(N)=O)C(C)C)[C@@H](C)OP(=O)(O)O [JUN59–73 pS] (Ac-DLL[pT]SPDVGLLKLASY-NH2) | – | – | – | – | Kd (GGA1 VHS [2]): 1900 µM |
| CC(=O)N[C@@H](Cc1ccc(O)cc1)C(=O)N[C@@H](CCCCN)C(=O)N[C@@H](CCCCN)C(=O)N[C@@H](CCC(N)=O)C(=O)N[C@@H](CC(C)C)C(=O)N[C@@H](CCCCN)C(=O)N[C@@H](CCCNC(=N)N)C(=O)N[C@@H](Cc1ccccc1)C(=O)N[C@@H](CO)C(=O)N[C@H](C(=O)N[C@@H](CCC(=O)O)C(=O)N[C@@H](CCC(=O)O)C(=O)N[C@@H](Cc1ccccc1)C(=O)N[C@H](C(=O)N[C@@H](CC(C)C)C(=O)N[C@@H](CC(C)C)C(=O)O)C(C)C)[C@@H](C)O [ATG4C444–458 wt] | – | – | – | – | Kd (MAP1LC3B): 7.1 ± 0.6 µM; IC50 (MAP1LC3A; Fig 4B, MAP1LC3A ATG8, FP displacement, technical triplicates, read-out: IC50 values of displacement curves, with SEM): 17 ± 1 µM; Kd (MAP1LC3A; read-out: KD values ± SEM): 5.2 ± 0.2 µM; Kd (GABARAPL2): 0.8 ± 0.4 µM |
| CC[C@H](C)[C@H](NC(=O)[C@H](CC(=O)O)NC(=O)[C@H](CC(=O)O)NC(=O)[C@H](CO)NC(=O)[C@@H](NC(=O)[C@@H]1CCCN1C(=O)[C@H](CO)NC(=O)[C@H](CCCCN)NC(=O)[C@H](Cc1ccc(O)cc1)NC(C)=O)[C@@H](C)O)C(=O)N[C@@H](COP(=O)(O)O)C(=O)N[C@@H](CC(C)C)C(=O)N[C@@H](CC(C)C)C(=O)N[C@@H](Cc1c[nH]cn1)C(=O)N[C@@H](CCC(=O)O)C(=O)N[C@@H](CO)C(=O)N[C@@H](CCC(N)=O)C(=O)N[C@@H](CO)C(N)=O [RNF11_6–21 pS] (Ac-YKSPTSDDI[pS]LLHESQS-NH2) | 27 µM | 35100 | 38900 | 31 ± 3 µM | – |
